# Measurements as given in patent US20100093794A1, “Use of a Compound in Obtaining Cytoskeleton Blockage and Cell Elongation” (priority 2006, published 2010).
# Starred links: 1 amine or outer side, 2 acyl side, 3 side chain; linkers in the order of their positions; H or OH if unused. Positions of bridges follow the written chain, without caps; N, C: chain ends. Non-standard residues stand in square brackets, D forms with d. Residues, ends and D or L forms follow the SMILES beside them. Trp(2-yl) = O=C([C@H](Cc1c([*:3])[nH]c2ccccc12)N[*:1])[*:2]; Leu(4R-OH,5-OH) = C[C@](O)(CO)C[C@H](N)C(=O)O; cisHyp = O=C(O)[C@@H]1C[C@H](O)CN1
# How the values were obtained:
# [1] = test system: F-actin; experiment: Cytoskeleton staining and confocal microscope: actin filament (F-actin); assay type: cell-based, human
# Method: (§1) The cells were cultured on coverslips kept in a p60 Petri dish, and the coverslips were kept in a CO2 incubator for 16-20 hours. After being treated with or without PT-262, the cells were fixed in 4% parafomaldehyde solution for 60 minutes at 37° C. Then the coverslips were washed three times with PBS. The F-actin and β-tubulin were stained with 20 U/ml BODIPY FL phallacidin and anti-β-tubulin Cy3 for 30 minutes at 37° C., respectively. Finally, the nuclei were stained with 2.5 ug/ml Hoechst 33258 for 30 minutes. And the cells were added with 80% Glycerin and sealed with nail varnish. The samples were examined under a Leica confocal laser scanning microscope.
# [2] = test system: A549 lung carcinoma cells; experiment: Cytoskeleton staining and confocal microscope: cell elongation; assay type: cell-based, human
# Method: as §1
# [3] = test system: Microtubule; experiment: Cytoskeleton staining and confocal microscope: microtubule (β-tubulin); assay type: cell-based, human; conditions: for red fluorescence intensity of β-tubulin: A549, 50 nM, 24 hours; for microtubule polymerization: comparison of cytoskeleton inhibitors
# Method: as §1
# [4] = test system: A549 lung carcinoma cells; experiment: Cell cycle analysis (flow cytometer); assay type: cell-based, human; conditions: 24 hours
# Method: (§2) The A549 cell line was derived from lung carcinoma of a person. The H1299 cell line has a homozygous deletion of the P53 gene that was derived from a non-small cell lung adenocarcinoma tumor. MCF-7 cell line was derived from breast adenocarcinoma of a person. Hela cell line was derived from cervical carcinoma of a person. These cell lines are cultured in RPMI-1640 medium supplemented with 10% fetal bovine serum, 100 units/ml penicillin, 100 ug/ml streptomycin, and L-glutamine (0.03%, w/v), and cells were incubated at 37° C. and 5% CO2.
# (§3) The cells were plated at a density of 1×10^6 cells per p60 dish for 16-20 hours. Then the cells were treated with PT-262 for 24 hours. After drug treatment, the cells were washed with PBS and re-treated with trypsin, the cells were suspended and collected in a 15 ml centrifuge tube. After centrifugation at 1500 rpm for 5 minutes, the cells were fixed with 70% ethanol and stored at −20° C. for at least 2 hours. After being re-centrifuged at 1500 rpm for 5 minutes, the cell pellets were incubated with 4 ug/ml propidium iodine solution containing 1% Triton X-100 and 100 ug/ml RNase A for 30 minutes. The cell cycle was then analyzed by flow cytometer, and the percentage of cell cycle was quantified by ModFit Lt software (Ver. 2.0).
# [5] = test system: Ras; experiment: Western blot; assay type: cell-based; conditions: cancer cells; after treatment with PT-262
# Method: (§4) At the end of treatment, the cells were lysed in the cell extract buffer containing the protease inhibitors. Amounts of proteins in samples were subjected to electrophoresis using 10-12 sodium dodecyl sulfate-polyacrylamide gels. After electrophoretic transfer of proteins onto polyvinylidene difluoride (PVDF) membranes, the membranes were dipped in 5% degreased milk containing first antibody for 24 hours at 4° C. After being washed three times with TTBS buffer solution for 5-15 minutes at room temperature, the PVDF membranes are dipped in 5% degreased milk containing second antibody for 1-2 hours at room temperature. And then the membranes were re-washed three times with TTBS buffer solution for 5-15 minutes at room temperature. Finally, the protein bands were visualized using the enhanced chemiluminescence detection system.
# [6] = test system: cyclin B1; experiment: Western blot; assay type: cell-based; conditions: cancer cells; 5-20 uM, 24 hours
# Method: as §4
# [7] = test system: phospho-cdc2; experiment: Western blot; assay type: cell-based; conditions: cancer cells; 5-20 uM, 24 hours
# Method: as §4
# [8] = test system: caspase-3; experiment: Western blot; assay type: cell-based; conditions: cancer cells
# Method: as §4
# [9] = test system: phospho-ERK; experiment: Western blot; assay type: cell-based; conditions: cancer cells; after treatment with PT-262
# Method: as §4
# [10] = test system: human A549 lung carcinoma cells; experiment: MTT assay (cytotoxicity); assay type: cell-based
# Method: as §2
# (§5) Briefly, the cells were plated in 96-well plates at a density of 1×10^4 cells/well for 16-20 hours. Then the cells were treated with pt-262 for 24 hours in serum-free RPMI-1640 medium. After drug treatment, the cells were washed with phosphate-buffered saline (PBS), and were re-cultured in complete RPMI-1640 medium for 48 hours. Subsequently, the medium was replaced and the cells were incubated with 500 ug/ml MTT in complete RPMI-1640 medium for 4 hours. The surviving cells were dissolved in DMSO after removing the MTT medium, and was measured at 565 nm using a ELISA reader.
# [11] = test system: A549 lung carcinoma cells; experiment: Cell growth assay; assay type: cell-based, human; conditions: 24 hours
# Method: as §2
# The cells were plated at a density of 5×10^5 cells per p100 Petri dish for 16-20 hours. Then the cells were treated with PT-262 of different concentrations for 24 hours. After drug treatment, the cells were washed with PBS and re-treated with trypsin, the cells were suspended and were counted by a hemocytometer.
# [12] = test system: H1299 cells; experiment: Cell cycle analysis (flow cytometer); assay type: cell-based; conditions: 24 hours
# Method: as §2, §3
# [13] = test system: MCF-7 breast carcinoma cells; experiment: MTT assay (cytotoxicity); assay type: cell-based, human
# Method: as §2, §5
# [14] = test system: Hela cervical carcinoma cells; experiment: MTT assay (cytotoxicity); assay type: cell-based, human
# Method: as §2, §5
# [15] = test system: A549 lung carcinoma cells; experiment: Mitochondrial membrane potential (DiOC6, flow cytometer); assay type: cell-based, human; conditions: as the drug concentration increased, 24 hours
# Method: The cells were cultured in 60-mm Petri dish at a density of 5×10^5 cells. Then the cells were treated with PT-262 of different concentrations for 24 hours. After drug treatment, the cells were washed with PBS and were trypsinized, the cells were suspended and were counted by a hemocytometer. The cells were collected by centrifugation, and the pellets were resuspended in 70% ethanol and stored at […]20° C. for at least 2 hours. After centrifugation, the pelts were incubated with 0.5 uM DiOC6 for 30 minutes. Then cell pellets were collected by centrifugation and resuspended in 0.5 ml ice-cold PBS. Finally, fluorescence intensities of DiOC6 were analyzed on a flow cytometer.
# [16] = test system: terminal cancer patients; conditions: cited from earlier work
# [17] = comparison of cytoskeleton inhibitors
# [18] = lung carcinoma cells, comparison of cytoskeleton inhibitors
# [19] = Homo sapiens, treatment for 24 hours, at cell viability of 50%
structure (smiles),measurement,setting,value
"C=C1[C@@H](C)[C@H]2[C@H](Cc3ccccc3)NC(=O)[C@]23OC(=O)/C=C/[C@H](O)CCC[C@@H](C)C/C=C/[C@H]3[C@@H]1O [cytochalasin B, reference compound]",actin polymerization,[1]; [17],prevented
same,cell elongation,[2]; [18],didn't induce
COc1cc2c(c(OC)c1OC)-c1ccc(OC)c(=O)cc1[C@@H](NC(C)=O)CC2 [colchichine],cell elongation,[2]; [18],didn't induce
same,red fluorescence intensity of β-tubulin,[3],reduced
same,microtubule polymerization,[3],inhibiting
"O=C1C(N2CCCCC2)=C(Cl)C(=O)c2ncccc21 [PT-262, 7-chloro-6-piperidin-1-yl-quinoline-5,8-dione]",F-actin polymerization,"[1]; A549, 2 uM",induced
same,actin polymerization,[1]; [17],induction
same,G0/G1 fractions,[4],decreased
same,G2/M fractions,[4],increased
same,cell elongation,"[2]; A549, 2 uM",induced
same,cell length of some cells,"[2]; A549, Leica confocal software",160 um
same,average cell length,"[2]; A549, untreated 39.2 um, Leica confocal software",65.3 um
same,cell elongation,[2]; [18],increased
same,expression level of Ras,[5],decreased
same,levels of cyclin B1 protein,[6],noticeably decreased
same,levels of phospho-cdc2 protein,[7],noticeably decreased
same,caspase-3 activation,[8],noticeably induced
same,expression level of phospho-ERK,[9],decreased
same,cell survival ratio,"[10]; 1-10 uM, 24 hours",decreased as the concentration increased
same,IC50,[10]; [19],2 to 4 µM
same,growth arrest,[11]; 10 uM,almost completely induced
same,cell growth,[11]; 5-10 uM,concentration-dependently inhibited
same,G0/G1 fractions,[12],decreased
same,G2/M fractions,[12],increased
same,cell survival ratio,"[13]; 1-10 uM, 24 hours",decreased as the concentration increased
same,IC50,"[13]; Homo sapiens, MCF7, treatment for 24 hours, at cell viability of 50%",2 to 4 µM
same,cell survival ratio,"[14]; 1-10 uM, 24 hours",decreased as the concentration increased
same,IC50,[14]; [19],2 to 4 µM
same,Mitochondrial membrane potential,[15],noticeably inhibited
CC(=O)O[C@H]1C(=O)[C@@]2(C)[C@H]([C@H](OC(=O)c3ccccc3)[C@]3(O)C[C@H](OC(=O)[C@H](O)[C@@H](NC(=O)c4ccccc4)c4ccccc4)C(C)=C1C3(C)C)[C@]1(OC(C)=O)CO[C@@H]1C[C@@H]2O [paclitaxel],cell elongation,[2]; [18],didn't induce
same,red fluorescence intensity of β-tubulin,[3],increased
same,microtubule polymerization,[3],induced
same,suppression rate,[16]; 40 terminal cancer patients,30%
same,patients reduced in tumor size by over 50%,[16]; of 40 terminal cancer patients,12
"C[C@@H]1NC(=O)[C@H](C[C@@](C)(O)CO)NC(=O)[C@@H]2Cc3c([nH]c4ccccc34)SC[C@H](NC(=O)[C@@H]([C@H](C)O)NC1=O)C(=O)N1C[C@@H](O)C[C@H]1C(=O)N[C@@H](C)C(=O)N2 [phalloidin] (cyclo(A[dT]C[cisHyp]A[Trp(2-yl)][Leu(4R-OH,5-OH)]); thioether 3-6)",green fluorescence intensity of F-actin,"[1]; A549, 24 hours",increased
same,actin depolymerization,[1]; [17],inhibit
same,cell elongation,"[2]; A549, 24 hours",caused the cell elongation
